Consider 17 molecules from US20060280894A1, “Metal complexes as light-absorbing compounds in the information layer of optical data carriers” (priority 2003, published 2006).

The series in a line: Absorption spectrum measured in solution.
Where [1] appears, read: molar extinction coefficient at λmax, solvent as given for λmax.

Molecules are shown by their SMILES. Like-named read-outs stand apart in the source and are kept apart here. Marks after values point to notes of the source that are not given here.

Consider `CCN(CC)c1ccc(N=Nc2nc(-c3ccccc3)ns2)c([N-]S(=O)(=O)N(C)C)c1.CCN(CC)c1ccc(N=Nc2nc(-c3ccccc3)ns2)c([N-]S(=O)(=O)N(C)C)c1.[Co+2]` [Example 12], for which the ε stood at 92750 L/mol/cm, the λ1/2-λ1/10 was 32 nm and the λmax stood at 551 nm.
On the same counts, the results for `CCN(CC)c1ccc(N=Nc2nc(C#N)c(C#N)[nH]2)c([N-]P(=O)(OCC(F)(F)C(F)F)OCC(F)(F)C(F)F)c1.CCN(CC)c1ccc(N=Nc2nc(C#N)c(C#N)[nH]2)c([N-]P(=O)(OCC(F)(F)C(F)F)OCC(F)(F)C(F)F)c1.[Ni+2]` [Example 5] are 70893 L/mol/cm, 21 nm and 510^4) nm.
For `CCN(CC)c1ccc(N=Nc2nc(C#N)c(C#N)n2C)c([N-]P(=O)(OCC(F)(F)C(F)F)OCC(F)(F)C(F)F)c1.CCN(CC)c1ccc(N=Nc2nc(C#N)c(C#N)n2C)c([N-]P(=O)(OCC(F)(F)C(F)F)OCC(F)(F)C(F)F)c1.[Co+2]` [Example 3], the ε came out at 92203 L/mol/cm, the λ1/2-λ1/10 was 33 nm and the λmax is 538^5) nm.
For `CCCNS(=O)(=O)[N-]c1cc(N(CC)CC)ccc1N=Nc1nc(C#N)c(C#N)[nH]1.CCCNS(=O)(=O)[N-]c1cc(N(CC)CC)ccc1N=Nc1nc(C#N)c(C#N)[nH]1.[Ni+2]` [Example 6], under setting [1], the ε stood at 34523 L/mol/cm. The same molecule returned a λ1/2-λ1/10 (on the long wavelength flank) of 21 nm.
On to `CCN(CC)c1cc([N]([Co][N](c2cc(N(CC)CC)c(C)cc2N=Nc2nc(-c3ccccc3)ns2)S(=O)(=O)N(C)C)S(=O)(=O)N(C)C)c(N=Nc2nc(-c3ccccc3)ns2)cc1C` [Example 38], for which the λmax is given as 554^5) nm.
Consider `CCN(CC)c1ccc(N=Nc2nc(C#N)c(C#N)[nH]2)c([N-]S(=O)(=O)N(C)C)c1.CCN(CC)c1ccc(N=Nc2nc(C#N)c(C#N)[nH]2)c([N-]S(=O)(=O)N(C)C)c1.[Ni+2]` [Example 18], for which the λmax (in methanol) is 518^4) nm. Also, the ε under setting [1] was 92143 L/mol/cm. For the same molecule, where the note is “on the long wavelength flank”, the λ1/2-λ1/10 is 21 nm.
As to `CCN(CC)c1ccc(N=Nc2nnc(C)s2)c([N]([Ni][N](c2cc(N(CC)CC)ccc2N=Nc2nnc(C)s2)S(=O)(=O)N(C)C)S(=O)(=O)N(C)C)c1` [Example 29], where the note is “in methylene chloride”, the λmax was 554 nm. In addition, under setting [1], the ε worked out at 84070 L/mol/cm. The molecule also came in with a λ1/2-λ1/10 (on the long wavelength flank) of 26 nm.
As to `CCN(CC)c1ccc(N=Nc2nnc(C)s2)c([N]([Co][N](c2cc(N(CC)CC)ccc2N=Nc2nnc(C)s2)S(=O)(=O)N(C)C)S(=O)(=O)N(C)C)c1` [Example 30], where the note is “in methylene chloride”, the λmax was determined as 554 nm.
Regarding `CCN(CC)c1cc([N]([Ni][N](c2cc(N(CC)CC)c(C)cc2N=Nc2nc(-c3ccccc3)ns2)S(=O)(=O)N(C)C)S(=O)(=O)N(C)C)c(N=Nc2nc(-c3ccccc3)ns2)cc1C` [Example 36], the λmax is 552^5) nm.
As for `CCN(CC)c1ccc(N=Nc2nc(C#N)c(C#N)n2C)c([N-]S(=O)(=O)N(C)C)c1.CCN(CC)c1ccc(N=Nc2nc(C#N)c(C#N)n2C)c([N-]S(=O)(=O)N(C)C)c1.[Zn+2]` [Example 17], the ε is 111931 L/mol/cm and the λ1/2-λ1/10 was found to be 12 nm.
`CCN(CC)c1ccc(N=Nc2nc(C#N)c(C#N)n2C)c([N-]P(=O)(OCC(F)(F)C(F)F)OCC(F)(F)C(F)F)c1.CCN(CC)c1ccc(N=Nc2nc(C#N)c(C#N)n2C)c([N-]P(=O)(OCC(F)(F)C(F)F)OCC(F)(F)C(F)F)c1.[Cu+2]` [Example 4]: the ε amounted to 88071 L/mol/cm, the λ1/2-λ1/10 worked out at 29 nm and the λmax is on record as 533^5) nm.
Consider `CCN(CC)c1ccc(N=Nc2nc(-c3ccccc3)ns2)c([N-]S(=O)(=O)N(C)C)c1.CCN(CC)c1ccc(N=Nc2nc(-c3ccccc3)ns2)c([N-]S(=O)(=O)N(C)C)c1.[Ni+2]` [Example 11], for which the ε turned out to be 86514 L/mol/cm and the λmax was found to be 530 nm.
Consider `CCN(CC)c1cc([N]([Ni][N](c2cc(N(CC)CC)c(OC)cc2N=Nc2nc(-c3ccccc3)ns2)S(=O)(=O)N(C)C)S(=O)(=O)N(C)C)c(N=Nc2nc(-c3ccccc3)ns2)cc1OC` [Example 35], for which the λmax is given as 544 nm.
Turning to `CCN(CC)c1ccc(N=Nc2nc(-c3ccccc3)ns2)c([N]([Ni][N](c2cc(N(CC)CC)ccc2N=Nc2nc(-c3ccccc3)ns2)S(=O)(=O)NCC(F)(F)C(F)F)S(=O)(=O)NCC(F)(F)C(F)F)c1` [Example 31], the λmax (in methylene chloride) turned out to be 556 nm.
`CCN(CC)c1ccc(N=Nc2nc(C#N)c(C#N)n2C)c([N-]S(=O)(=O)N(C)C)c1.CCN(CC)c1ccc(N=Nc2nc(C#N)c(C#N)n2C)c([N-]S(=O)(=O)N(C)C)c1.[Ni+2]` [Example 15] gave a ε of 107238 L/mol/cm, a λ1/2-λ1/10 of 21 nm and a λmax of 540 nm.
On the same counts, the results for `CCN(CC)c1ccc(N=Nc2nc(-c3ccccc3)ns2)c([N]([Ni][N](c2cc(N(CC)CC)ccc2N=Nc2nc(-c3ccccc3)ns2)P(=O)(OC)c2ccccc2)P(=O)(OC)c2ccccc2)c1` (centres unmarked) [Example 23] are 90126 L/mol/cm, 61 nm and 538^5) nm.
Molecule `CCN(CC)c1ccc(N=Nc2nc(C#N)c(C#N)n2C)c([N-]S(=O)(=O)N(C)C)c1.CCN(CC)c1ccc(N=Nc2nc(C#N)c(C#N)n2C)c([N-]S(=O)(=O)N(C)C)c1.[Co+2]` [Example 16] came in with a ε of 94990 L/mol/cm, a λ1/2-λ1/10 of 33 nm and a λmax of 543 nm.
